Results published in the NIST ThermoML archive (doi:10.1016/j.jct.2012.12.007).
Numbers after ± are expanded uncertainties.

Settings: 101.33 kPa, Liquid; for speed of sound: Sing-around technique in a fixed-path interferometer; for mass density: Vibrating tube method

Row | speed of sound (293.15 K) | mass density (293.15 K) | speed of sound (298.15 K) | mass density (298.15 K) | speed of sound (303.15 K) | mass density (303.15 K) | Structure (SMILES)
1 | 1256.2 ± 0.7 m/s | 809.89 ± 0.12 kg/m3 | 1239.6 ± 0.7 m/s | 806.47 ± 0.12 kg/m3 | 1223.8 ± 0.7 m/s | 802.22 ± 0.12 kg/m3 | CCCCO [butan-1-ol]
2 | 1397.1 ± 1.2 m/s | 829.95 ± 0.24 kg/m3 | 1380.3 ± 1.2 m/s | 826.95 ± 0.24 kg/m3 | 1364.1 ± 1.2 m/s | 823.15 ± 0.24 kg/m3 | CCCCCCCCCCO [decan-1-ol]
3 | 1259.4 ± 1.2 m/s | 906.73 ± 0.23 kg/m3 | 1239.9 ± 1.2 m/s | 902.88 ± 0.23 kg/m3 | 1221.8 ± 1.2 m/s | 897.22 ± 0.23 kg/m3 | CCOCCOCCOCC [diethylene glycol diethyl ether]
4 | 1118 ± 1 m/s | 791.55 ± 0.12 kg/m3 | 1101.4 ± 0.6 m/s | 787.2 ± 0.12 kg/m3 | 1086.6 ± 0.6 m/s | 782.44 ± 0.12 kg/m3 | CO [methanol]
